Experimental data as given in PMC3265293, “Artificial 64-Residue HIV-1 Enhancer-Binding Peptide Is a Potent Inhibitor of Viral Replication in HIV-1-Infected Cells” (Advances in Virology, 2011).
Where no end group is shown, it is not given here.

Columns and labels:
[1] = test system: CEM-GFP cells; assay: MTT assay of PMA-stimulated CEM-GFP cells; assay type: cell-based, human; conditions: PMA and increasing concentrations of peptide, after 48 h
Protocol: After 48 h, cell growth-inhibitory effects of the peptides and PMA were assessed using the 3-[4,5-dimethylthiazol-2-yl]-2,5-diphenyltetrazolium bromide (MTT) assay.

[2] = test system: plasma membrane; design: method as in earlier work; conditions: ref earlier work; cited from earlier work

GKTKRPRFGKTKRPRVGQQSIEQLENGKTKRPRFGKTKRPRY [R42]
cytotoxicity (MTT assay) [1]: not observed
ability to pass the plasma membrane [2]: not able to pass the plasma membrane
